The values below are quoted from earlier work in US11707478B2, “Method for increasing uridine concentration in blood plasma” (N.V. Nutricia, priority 2016, dated 2023).

The conditions of data set [1]: oral administration of uridine, Klubes 1986.
Another data set concerns the target T1, CNT 1 (Homo sapiens, UniProt O00337).
T1 sequence (O00337 1-649): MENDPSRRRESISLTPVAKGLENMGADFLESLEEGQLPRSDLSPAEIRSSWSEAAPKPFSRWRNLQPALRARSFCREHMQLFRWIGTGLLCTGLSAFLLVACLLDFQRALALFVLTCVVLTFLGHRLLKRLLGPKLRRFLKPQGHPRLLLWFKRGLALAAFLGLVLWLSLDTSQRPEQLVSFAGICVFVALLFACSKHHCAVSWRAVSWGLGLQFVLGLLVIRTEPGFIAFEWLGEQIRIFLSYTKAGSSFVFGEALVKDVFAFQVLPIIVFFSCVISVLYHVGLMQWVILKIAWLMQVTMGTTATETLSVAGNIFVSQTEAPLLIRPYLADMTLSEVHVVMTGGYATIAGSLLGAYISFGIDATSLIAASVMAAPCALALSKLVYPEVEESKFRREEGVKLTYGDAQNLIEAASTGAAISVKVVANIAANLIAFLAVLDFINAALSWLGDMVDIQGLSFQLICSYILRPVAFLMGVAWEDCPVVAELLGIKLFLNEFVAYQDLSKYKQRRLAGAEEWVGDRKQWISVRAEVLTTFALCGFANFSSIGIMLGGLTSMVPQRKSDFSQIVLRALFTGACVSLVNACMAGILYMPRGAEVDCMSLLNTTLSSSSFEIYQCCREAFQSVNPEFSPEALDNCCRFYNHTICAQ
The settings on record: CNT 1 in the gut and in many other cells; read-out: apparent Km value of main transporter.

By Km is commonly meant the substrate concentration at which the rate is half of its maximum. For `O=c1ccn([C@@H]2O[C@H](CO)[C@@H](O)[C@H]2O)c(=O)[nH]1` [Uridine, 1-[(2R,3R,4S,5R)-3,4-dihydroxy-5-(hydroxymethyl)oxolan-2-yl]pyrimidine-2,4-dione], the bioavailability entry in data set [1] is given as “about 7%”. For the same compound, the Michaelis-Menten constant (Km) on CNT 1 is 6 to 16 µM.
